According to US8835644B2, “Broad spectrum benzothiophene-nitrothiazolide and other antimicrobials” (University of Virginia Patent Foundation, priority 2009, dated 2014):
Converted amounts (≈) assume the structure as drawn. Where two headings read alike, the source gives them in different places.

Assays:
[1] = test system: E. coli; assay: MIC testing by broth dilution, E. coli plank; type: cell-based, Escherichia coli
Experimental: (§1) A standard broth dilution protocol was used in 96 well microplates containing a standard dilution of the microorganism to be tested in 100 microliters of the appropriate medium. Appropriate medium: E. coli, LB medium; Staphylococcus strains, Trypticase Soy; and for H. pylori and C. jejuni, Brain Heart Infusion. The compounds to be tested were set at 32 μg/ml in 200 microliters in well one and then serially diluted to provide a range from 32 to 0.06. The wells were scored visually at 24 h. The well where there was no growth was recorded as the MIC. Clostridium difficile was tested by agar diffusion and disk diffusion (Kirby Bower) methods under anaerobic conditions on Wilkins Chalgrin agar. In these assays, zone of inhibited growth was measured and compared by relative ratio to the zone recorded for NTZ.
(§2) Representative compounds of the invention were tested in a series of assays against a series of organisms as described above. […] The organisms tested include, C. difficile, H. pylori, C. jejuni, MRSA, S. epidermidis, and E. coli. S. epidermidis and E. coli were tested in the plank and biofilm assay. A disk diffusion assay was also used for C. difficile. Direct PFOR enzyme assays were also performed. All analogues and derivatives were not tested on every organism in every type of assay (the “-” in each table means that it was not tested).

[2] = test system: MRSA; assay: MIC testing by broth dilution, MRSA; type: cell-based, Staphylococcus aureus
Experimental: as §1, §2

[3] = test system: S. epidermidis; assay: MIC testing by broth dilution, S. epidermidis plank; type: cell-based, Staphylococcus epidermidis
Experimental: as §1, §2

[4] = test system: C. jejuni; assay: MIC testing by broth dilution, C. jejuni; type: cell-based, Campylobacter jejuni
Experimental: as §1, §2

[5] = test system: H. pylori; assay: MIC testing by broth dilution, H. pylori; type: cell-based, Helicobacter pylori
Experimental: as §1, §2

[6] = planktonic, Furan analogues table, read-out: MIC E. coli Plank
[7] = Furan analogues table, read-out: MIC MRSA
[8] = planktonic, Furan analogues table, read-out: MIC S. epidermidis Plank
[9] = Furan analogues table, read-out: MIC C. jejuni
[10] = Furan analogues table, read-out: MIC H. pylori
[11] = planktonic, Thiophene analogues table, read-out: MIC E. coli Plank
[12] = Thiophene analogues table, read-out: MIC MRSA
[13] = planktonic, Thiophene analogues table, read-out: MIC S. epidermidis Plank
[14] = Thiophene analogues table, read-out: MIC C. jejuni
[15] = Thiophene analogues table, read-out: MIC H. pylori
[16] = broth dilution, LB medium, 24 h, read-out: MIC (μM) E. coli Plank
[17] = broth dilution, Trypticase Soy, 24 h, read-out: MIC (μM) MRSA
[18] = broth dilution, Trypticase Soy, 24 h, read-out: MIC (μM) S. epidermidis Plank
[19] = broth dilution, Brain Heart Infusion, 24 h, read-out: MIC (μM) C. jejuni
[20] = broth dilution, Brain Heart Infusion, 24 h, read-out: MIC (μM) H. pylori

COc1ccc(-c2ccc(C(=O)Nc3ncc([N+](=O)[O-])s3)o2)cc1 [VPC16b1139]
MIC [1, 6]: 92.7 µM (≈ 32 µg/mL)
MIC [2, 7]: 92.7 µM (≈ 32 µg/mL)
MIC [3, 8]: 92.7 µM (≈ 32 µg/mL)
MIC [4, 9]: 92.7 µM (≈ 32 µg/mL)
MIC [5, 10]: 1.5 µM (≈ 0.518 µg/mL)

O=C(Nc1ncc([N+](=O)[O-])s1)c1ccc(-c2ccoc2)o1 [VPC16b1142]
MIC [1, 6]: 104.8 µM (≈ 32 µg/mL)
MIC [2, 7]: 26.2 µM (≈ 8 µg/mL)
MIC [3, 8]: 13.1 µM (≈ 4 µg/mL)
MIC [4, 9]: 13.1 µM (≈ 4 µg/mL)
MIC [5, 10]: 1.6 µM (≈ 0.488 µg/mL)

O=C(Nc1ncc([N+](=O)[O-])s1)c1ccc(-c2cccs2)o1 [VPC16b1145, N-(5-Nitrothiazol-2-yl)-5-(thiophen-2-yl)furan-2-carboxamide]
MIC ([1]; Escherichia coli, planktonic, Furan analogues table, read-out: MIC E. coli Plank): 99.6 µM (≈ 32 µg/mL)
MIC ([2]; Staphylococcus aureus, MRSA, Furan analogues table, read-out: MIC MRSA): 12.4 µM (≈ 3.98 µg/mL)
MIC ([3]; Staphylococcus epidermidis, planktonic, Furan analogues table, read-out: MIC S. epidermidis Plank): 12.4 µM (≈ 3.98 µg/mL)
MIC ([4]; Campylobacter jejuni, Furan analogues table, read-out: MIC C. jejuni): 12.5 µM (≈ 4.02 µg/mL)
MIC ([5]; Helicobacter pylori, Furan analogues table, read-out: MIC H. pylori): 1.9 µM (≈ 0.611 µg/mL)

O=C(Nc1ncc([N+](=O)[O-])s1)c1ccc(-c2ccco2)s1 [VPC16b1148]
MIC [1, 11]: 99.6 µM (≈ 32 µg/mL)
MIC [2, 12]: 24.9 µM (≈ 8 µg/mL)
MIC [3, 13]: 12.4 µM (≈ 3.98 µg/mL)
MIC [4, 14]: 12.4 µM (≈ 3.98 µg/mL)
MIC [5, 15]: 7.8 µM (≈ 2.51 µg/mL)

O=C(Nc1ncc([N+](=O)[O-])s1)c1ccc(-c2ccsc2)s1 [VPC16b1154]
MIC [1, 11]: 94.8 µM (≈ 32 µg/mL)
MIC [2, 12]: 94.8 µM (≈ 32 µg/mL)
MIC [3, 13]: 94.8 µM (≈ 32 µg/mL)
MIC [4, 14]: 94.8 µM (≈ 32 µg/mL)
MIC [5, 15]: 3.0 µM (≈ 1.01 µg/mL)

Cc1cccc(-c2ccc(C(=O)Nc3ncc([N+](=O)[O-])s3)s2)c1 [VPC16b2011]
MIC [1, 11]: 92.6 µM (≈ 32 µg/mL)
MIC [2, 12]: 92.6 µM (≈ 32 µg/mL)
MIC [3, 13]: 92.6 µM (≈ 32 µg/mL)
MIC [4, 14]: 92.6 µM (≈ 32 µg/mL)
MIC [5, 15]: 2.2 µM (≈ 0.76 µg/mL)

Cc1cccc(-c2ccc(C(=O)Nc3ncc([N+](=O)[O-])s3)o2)c1 [VPC16b2014]
MIC [1, 6]: 97.2 µM (≈ 32 µg/mL)
MIC [2, 7]: 97.2 µM (≈ 32 µg/mL)
MIC [3, 8]: 97.2 µM (≈ 32 µg/mL)
MIC [4, 9]: 97.2 µM (≈ 32 µg/mL)
MIC [5, 10]: 2.3 µM (≈ 0.757 µg/mL)

Cc1ccc(-c2ccc(C(=O)Nc3ncc([N+](=O)[O-])s3)o2)cc1 [VPC16b2019]
MIC [1, 6]: 97.2 µM (≈ 32 µg/mL)
MIC [2, 7]: 97.2 µM (≈ 32 µg/mL)
MIC [3, 8]: 97.2 µM (≈ 32 µg/mL)
MIC [4, 9]: 97.2 µM (≈ 32 µg/mL)
MIC [5, 10]: 1.5 µM (≈ 0.494 µg/mL)

O=C(Nc1ncc([N+](=O)[O-])s1)c1ccc(-c2cccs2)s1 [VPC16b2021]
MIC [1, 11]: 94.8 µM (≈ 32 µg/mL)
MIC [2, 12]: 94.8 µM (≈ 32 µg/mL)
MIC [3, 13]: 94.8 µM (≈ 32 µg/mL)
MIC [4, 14]: 94.8 µM (≈ 32 µg/mL)
MIC [5, 15]: 3.0 µM (≈ 1.01 µg/mL)

O=C(Nc1ncc([N+](=O)[O-])s1)c1ccc(-c2ccsc2)o1 [VPC16b2022]
MIC [1, 6]: 99.6 µM (≈ 32 µg/mL)
MIC [2, 7]: 99.6 µM (≈ 32 µg/mL)
MIC [3, 8]: 99.6 µM (≈ 32 µg/mL)
MIC [4, 9]: 99.6 µM (≈ 32 µg/mL)
MIC [5, 10]: 6.2 µM (≈ 1.99 µg/mL)

O=C(Nc1ncc([N+](=O)[O-])s1)c1ccc(-c2ccccc2)o1 [VPC16c1020]
MIC [1, 6]: 101.5 µM (≈ 32 µg/mL)
MIC [2, 7]: 101.5 µM (≈ 32 µg/mL)
MIC [3, 8]: 101.5 µM (≈ 32 µg/mL)
MIC [4, 9]: 101.5 µM (≈ 32 µg/mL)
MIC [5, 10]: 2.4 µM (≈ 0.757 µg/mL)

O=C(Nc1ccccc1)Nc1ncc([N+](=O)[O-])s1 [VPC161223, 1-(5-Nitrothiazol-2-yl)-3-phenylurea]
MIC ([1]; Escherichia coli, 24 h, read-out: MIC (μM) E. coli Plank): 121 µM (≈ 32 µg/mL)
MIC ([2]; Staphylococcus aureus, MRSA, 24 h, read-out: MIC (μM) MRSA): 30.3 µM (≈ 8.01 µg/mL)
MIC ([3]; Staphylococcus epidermidis, 24 h, read-out: MIC (μM) S. epidermidis Plank): 30.3 µM (≈ 8.01 µg/mL)
MIC ([4]; Campylobacter jejuni, 24 h, read-out: MIC (μM) C. jejuni): 30.3 µM (≈ 8.01 µg/mL)
MIC ([5]; Helicobacter pylori, 24 h, read-out: MIC (μM) H. pylori): 1.4 µM (≈ 0.37 µg/mL)

O=C(Nc1nccs1)c1sc2cc(F)ccc2c1Cl [VPC161235]
MIC ([1]; Escherichia coli, planktonic, Thiophene analogues table, read-out: MIC E. coli Plank): 102 µM (≈ 32 µg/mL)
MIC ([2]; Staphylococcus aureus, MRSA, Thiophene analogues table, read-out: MIC MRSA): 102 µM (≈ 32 µg/mL)
MIC ([3]; Staphylococcus epidermidis, planktonic, Thiophene analogues table, read-out: MIC S. epidermidis Plank): 102 µM (≈ 32 µg/mL)
MIC ([4]; Campylobacter jejuni, Thiophene analogues table, read-out: MIC C. jejuni): 102 µM (≈ 32 µg/mL)
MIC ([5]; Helicobacter pylori, Thiophene analogues table, read-out: MIC H. pylori): 12.8 µM (≈ 4 µg/mL)

O=C(C=Cc1ccc(C(F)(F)F)cc1)Nc1ncc([N+](=O)[O-])s1 [VPC161239]
MIC [1, 16]: 93.2 µM (≈ 32 µg/mL)
MIC [2, 17]: 93.2 µM (≈ 32 µg/mL)
MIC [3, 18]: 2.9 µM (≈ 0.996 µg/mL)
MIC [4, 19]: 93.2 µM (≈ 32 µg/mL)
MIC [5, 20]: 0.6 µM (≈ 0.206 µg/mL)

Cl.NCCOc1cc([N+](=O)[O-])ccc1C(=O)Nc1ncc([N+](=O)[O-])s1 [VPC161256]
MIC [1, 16]: 82.1 µM
MIC [2, 17]: 82.1 µM
MIC [3, 18]: 82.1 µM
MIC [4, 19]: 5.1 µM
MIC [5, 20]: 1.3 µM

COc1cc2cc(C(=O)Nc3ncc([N+](=O)[O-])s3)sc2cc1F [VPC161259]
MIC [1, 11]: 90.6 µM (≈ 32 µg/mL)
MIC [2, 12]: 11.3 µM (≈ 3.99 µg/mL)
MIC [3, 13]: 11.3 µM (≈ 3.99 µg/mL)
MIC [4, 14]: 11.3 µM (≈ 3.99 µg/mL)
MIC [5, 15]: 2.1 µM (≈ 0.742 µg/mL)

CC(C)(C)OC(=O)COc1ccc(C(=O)Nc2ncc([N+](=O)[O-])s2)cc1 [VPC162036]
MIC [1, 16]: 84.3 µM (≈ 32 µg/mL)
MIC [2, 17]: 84.3 µM (≈ 32 µg/mL)
MIC [3, 18]: 84.3 µM (≈ 32 µg/mL)
MIC [4, 19]: 84.4 µM (≈ 32 µg/mL)
MIC [5, 20]: 0.5 µM (≈ 0.19 µg/mL)
